Experimental data as given in patent US7608636B2, “Medicines for treatment and prevention of neurogenic pain” (Hamilton Pharmaceuticals, Inc., priority 2000, dated 2009).

Tests used:
ddY male mice [1] = assay: von Frey test, administration into spinal subarachnoid space, partial sciatic nerve ligation model; type: in vivo, mouse; conditions: for effect on escape reaction threshold (von Frey): control group subjected only to the dissection, administration into spinal subarachnoid space (10 nmol), compared to physiological saline; for effect on noxious response threshold (von Frey): neuropathic pain model (sciatic nerve bound), administration into spinal subarachnoid space, nefiracetam 1 and 10 nmol, morphine 10 nmol, oxiracetam 10 nmol
Description: 42 of ddY male mice having a body weight of 16 to 18 g were used. […] The mice were anesthetized with pentobarbital, and skin of right hind leg of each mouse was dissected so that sciatic nerve was observed. The half of sciatic nerve fibers was bound with a suture for 24 mice among 42 mice, and only the dissection was performed for the remaining 18 mice (a control group). After the dissection site was sutured, the animals were left for 7 days (Xun Ye et al, Jpn. J. Pharmacol. 2000, Malmberg A B and Basbaum A I, Pain 1998). […] The group of mice of which sciatic nerves were bound was divided into 4 groups, and the threshold was measured twice. The average of the values was used as a control value. Then, mice of each group were each administered with 5 μl (1 nmol) of nefiracetam, 5 μl (10 nmol) of nefiracetam, 5 μl (10 nmol) of morphine or 5 μl of physiological saline into spinal subarachnoid space. After the administration, the threshold was repeatedly measured for 60 minutes with intervals of 10 minutes. The group of mice that were subjected only to the dissection was divided into three groups, and a control value was measured in the same manner as described above. Then, mice of each group were each administered with 5 μl (10 nmol) of nefiracetam, 5 μl (10 nmol) of morphine or 5 μl of physiological saline into spinal subarachnoid space, and the threshold was measured in the same manner as described above.
In the same manner as in Example 2, 5 μl (10 nmol) of oxiracetam was administered and the threshold was measured.
In the von Frey test, the escape reactions caused by mechanical noxious stimulus, which was given for a time period of 60 minutes with intervals of 10 minutes, were evaluated as a threshold (g).

ddY male mice [2] = assay: von Frey test, oral administration of nefiracetam, partial sciatic nerve ligation model; type: in vivo, mouse; conditions: oral administration 3, 10 or 30 mg/kg
Description: 36 of ddY male mice having a body weight of 16 to 18 g were used. In the von Frey test, the mice were placed on a mesh, and hind leg footpads of the mice were stimulated with a von Frey filament (digital type von Frey tester MODEL 1601 (IITC INC., U.S.A.)) every 15 minutes, and the threshold values observed at the beginning of an escape reaction were represented in a unit of gram. The mice were anesthetized with pentobarbital, and skin of right hind leg of each mouse was dissected so that sciatic nerve was observed. The half of sciatic nerve fibers was bound with a suture for 24 animals among the 36 animals, and only the dissection was performed for the remaining 12 animals (a sham group). After the dissection site was sutured, experiments were performed on the 7th day (Xun Ye et al, Jpn. J. Pharmacol. 2000, Malmberg A B and Basbaum A I, Pain 1998). […] The group of mice of which sciatic nerves were bound was divided into 4 groups, and the threshold was measured twice. […] Then, mice of each group were each orally administered with 3 mg/kg, 10 mg/kg or 30 mg/kg of nefiracetam or physiological saline (10 ml/kg), and the threshold was repeatedly measured for 90 minutes with intervals of 15 minutes. The mice of the control group (the sham group) that were subjected only to the dissection were divided into two groups, and a control value was measured in the same manner as described above. […]

ddY male mice [3] = assay: Hargreaves test, diabetic neuropathic pain (streptozotocin mice); type: in vivo, mouse; conditions: mice with diabetes mellitus (streptozotocin); oral administration 3, 10 or 30 mg/kg
Description: 36 of ddY male mice having a body weight of 28 to 30 g were used. In the Hargreaves test, the mice were placed on a glass plate, and hind leg footpads of the mice were stimulated with radiant heat (combination type analgesia meter MODEL 336 (IITC INC., U.S.A.)) every 10 minutes. And the latent time until the beginning of an escape reaction was measured. The mice with diabetes mellitus were prepared by administering streptozotocin (200 mg/kg) dissolved in 0.1 N citrate buffer (pH 4.5) to caudal arteries, and the experiment was performed on the 7th day. […] 24 animals among the 36 animals were determined as mice with diabetes mellitus according to the method described above, and the remaining 12 mice were administered with 0.1 N citrate buffer at caudal arteries and used as a comparative control group (control group). The mice with diabetes mellitus were divided into 4 groups, and the threshold was measured twice. […] Then, mice of each group were each orally administered with 3 mg/kg, 10 mg/kg or 30 mg/kg of nefiracetam or physiological saline (10 ml/kg), and the latent time was repeatedly measured for 60 minutes with intervals of 10 minutes. The control group was divided into two groups, and a control value was measured as described above. […]

ddY male mice [4] = assay: Peripheral nociception test (bradykinin-induced nociceptive flexion reaction), partial sciatic nerve ligation model; type: in vivo, mouse
Description: 17 of ddY male mice having a body weight of 13 to 15 g were used. The mice were anesthetized with pentobarbital, and skin of right hind leg of each mouse was dissected so that sciatic nerve was observed. The half of sciatic nerve fibers was bound with a suture for 9 mice among 17 mice, and only the dissection was performed for the remaining 8 animals (a control group). After the dissection site was sutured, the animals were left for 7 days (Xun Ye et al, Jpn. J. Pharmacol. 2000, Malmberg A B and Basbaum A I, Pain 1998). […] The group of mice of which sciatic nerves were bound was divided into two groups, and mice of one group were each administered with 5 μl (10 nmol) of nefiracetam and mice of the other group were each administered with 5 μl of physiological saline into spinal subarachnoid space. After the administration, the mice were each subcutaneously administered at a right hind leg footpad with physiological saline at 10 minutes and 15 minutes, 2 μl (0.1 fmol) of bradykinin at 20 minutes and 25 minutes, 2 μl (1 fmol) of bradykinin at 30 minutes and 35 minutes, 2 μl (10 fmol) of bradykinin at 40 minutes and 45 minutes, and 2 μl (100 fmol) of bradykinin at 50 minutes and 55 minutes after the administration. […]
In the mouse peripheral nociception test, nociceptive flexion reactions caused by chemical pain stimulus using bradykinin were evaluated. […]

male mouse = conditions: p.o.; cited from earlier work

SMILES | effect on escape reaction threshold (von Frey) (ddY male mice [1]) | effect on noxious response threshold (von Frey) (ddY male mice [1]) | suppressing effect on neuropathic pain by oral administration (von Frey) (ddY male mice [2]) | suppression effect on diabetic neuropathic pain (Hargreaves latent time) (ddY male mice [3]) | effect on the reaction caused by bradykinin administered to footpad (ddY male mice [4]; control group subjected only to the dissection, without nervous disturbance, administered into spinal subarachnoid space, compared to physiological saline) | bradykinin sensitive response (analgesic effect) (ddY male mice [4]; neuropathic pain model (sciatic nerve bound), administration into spinal subarachnoid space, bradykinin 0.1 to 100 fmol) | Acute toxicity (male mouse)
CN1CC[C@]23c4c5ccc(O)c4O[C@H]2[C@@H](O)C=C[C@H]3[C@H]1C5 [morphine, reference compound] | did not give significant effect | no significant effect |  |  |  |  | 
Cc1cccc(C)c1NC(=O)CN1CCCC1=O [nefiracetam, N-(2,6-dimethylphenyl)-2-(2-oxo-1-pyrrolidinyl)acetamide] | did not give significant effect | analgesic effect in a dose-dependent manner | suppressing effect on neuropathic pain | suppression effect | not significant | completely suppressed | 2,005 mg/kg
NC(=O)CN1CC(O)CC1=O (stereo not shown) [oxiracetam, 4-hydroxy-2-oxo-1-pyrrolidineacetamide] |  | analgesic effect substantially equivalent to that of nefiracetam |  |  |  |  | 
